From ChEMBL document CHEMBL5523721, “Derivatives of D(-) glutamine-based MMP-2 inhibitors as an effective remedy for the management of chronic myeloid leukemia-Part-I: Synthesis, biological screening and in silico binding interaction analysis” (Eur J Med Chem, 2024)
Active and inactive are the calls of the source. The rule behind the calls is not given here.

How the values were obtained:
K562 [1] = assay: Antiproliferative activity against human K562 cells incubated for 72 hrs by PrestoBlue assay; settings: K562, 72 h
[2] = Cytotoxicity against HEK293 cells incubated for 72 hrs by MTT assay; format: toxicity, cell-based; settings: human
U-87 MG = assay: Antiproliferative activity against human U-87 MG cells incubated for 72 hrs by MTT assay
A549 = assay: cells; settings: Homo sapiens, A549, 72 h
Description: Antiproliferative activity against human A549 cells incubated for 72 hrs by MTT assay

HT-1080 = assay: Antiproliferative activity against human HT-1080 cells incubated for 72 hrs by MTT assay; settings: HT-1080, 72 h
ACHN [3] = assay: Antiangiogenic activity in human ACHN cells assessed as reduction in mesh length at 26.764 uM incubated for 72 hrs by microscopic analysis; format: functional, cell-based
K562 [4] = assay: Induction of apoptosis in human K562 cells assessed as total apoptotic cells at 4.919 uM incubated for 72 hrs by Annexin-V/PI staining based flow cytometry analysis (reference value: 2.6 +/- 1.1%); format: functional
K562 [5] = assay: Induction of cell cycle arrest in human K562 cells assessed as cell population at S phase at 4.919 uM incubated for 72 hrs by propidium iodide staining based flow cytometry analysis (reference value: 32.7 +/- 3.1%); format: functional
[6] = molecular target: Matrix metalloproteinase-9 (Homo sapiens, UniProt P14780); assay: Inhibition of MMP-9 (unknown origin) using chromogenic substrate incubated for 1 hr by microplate photometer analysis
Matrix metalloproteinase-9, sequence (P14780 whole entry): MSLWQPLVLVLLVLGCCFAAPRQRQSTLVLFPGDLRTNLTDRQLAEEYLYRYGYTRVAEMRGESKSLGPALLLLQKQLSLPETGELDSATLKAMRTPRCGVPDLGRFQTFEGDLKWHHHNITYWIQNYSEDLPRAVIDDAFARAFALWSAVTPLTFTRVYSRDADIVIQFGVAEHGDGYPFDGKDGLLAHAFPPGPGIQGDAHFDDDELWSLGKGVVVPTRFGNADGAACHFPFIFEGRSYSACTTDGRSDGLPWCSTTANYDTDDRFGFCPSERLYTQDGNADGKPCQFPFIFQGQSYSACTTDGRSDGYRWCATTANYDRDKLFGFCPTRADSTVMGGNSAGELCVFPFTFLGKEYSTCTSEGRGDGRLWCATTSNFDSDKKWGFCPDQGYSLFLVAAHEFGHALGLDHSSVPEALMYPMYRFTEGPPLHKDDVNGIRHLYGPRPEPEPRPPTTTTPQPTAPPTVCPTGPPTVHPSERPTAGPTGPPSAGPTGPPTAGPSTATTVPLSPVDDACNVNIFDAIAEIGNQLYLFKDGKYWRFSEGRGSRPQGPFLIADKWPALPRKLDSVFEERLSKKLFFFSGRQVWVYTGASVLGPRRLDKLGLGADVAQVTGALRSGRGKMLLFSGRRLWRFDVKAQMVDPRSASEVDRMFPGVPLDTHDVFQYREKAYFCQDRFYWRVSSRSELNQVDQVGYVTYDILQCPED

K562 [7] = assay: Induction of cell cycle arrest in human K562 cells assessed as cell population at sub-G1 phase at 4.919 uM incubated for 72 hrs by propidium iodide staining based flow cytometry analysis; format: functional
ACHN [8] = assay: Antiangiogenic activity in human ACHN cells assessed as reduction in total segment length at 26.764 uM incubated for 72 hrs by microscopic analysis; format: functional, cell-based
ACHN [9] = assay: Antiangiogenic activity in human ACHN cells assessed as reduction in total tube length at 26.764 uM incubated for 72 hrs by microscopic analysis; format: functional, cell-based
Neutrophil collagenase = Neutrophil collagenase (Homo sapiens, UniProt P22894); assay: Inhibition of MMP-8 (unknown origin)
Neutrophil collagenase, sequence (P22894 whole entry): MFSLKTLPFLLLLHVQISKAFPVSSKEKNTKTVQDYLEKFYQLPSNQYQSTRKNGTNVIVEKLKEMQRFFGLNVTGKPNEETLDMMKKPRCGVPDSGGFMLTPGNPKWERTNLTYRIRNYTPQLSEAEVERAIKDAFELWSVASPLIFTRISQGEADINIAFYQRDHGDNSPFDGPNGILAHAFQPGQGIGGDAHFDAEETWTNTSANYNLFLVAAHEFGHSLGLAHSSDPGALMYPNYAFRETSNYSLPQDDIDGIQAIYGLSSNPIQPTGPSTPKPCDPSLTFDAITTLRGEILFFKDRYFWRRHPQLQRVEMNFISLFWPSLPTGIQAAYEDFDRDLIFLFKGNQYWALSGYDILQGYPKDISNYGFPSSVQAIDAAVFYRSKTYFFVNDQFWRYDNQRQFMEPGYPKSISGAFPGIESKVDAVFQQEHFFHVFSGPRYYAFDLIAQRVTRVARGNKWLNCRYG

[10] = molecular target: 72 kDa type IV collagenase (Homo sapiens, UniProt P08253); assay: Inhibition of MMP-2 (unknown origin) using chromogenic substrate incubated for 1 hr by microplate photometer analysis
72 kDa type IV collagenase, sequence (P08253 whole entry): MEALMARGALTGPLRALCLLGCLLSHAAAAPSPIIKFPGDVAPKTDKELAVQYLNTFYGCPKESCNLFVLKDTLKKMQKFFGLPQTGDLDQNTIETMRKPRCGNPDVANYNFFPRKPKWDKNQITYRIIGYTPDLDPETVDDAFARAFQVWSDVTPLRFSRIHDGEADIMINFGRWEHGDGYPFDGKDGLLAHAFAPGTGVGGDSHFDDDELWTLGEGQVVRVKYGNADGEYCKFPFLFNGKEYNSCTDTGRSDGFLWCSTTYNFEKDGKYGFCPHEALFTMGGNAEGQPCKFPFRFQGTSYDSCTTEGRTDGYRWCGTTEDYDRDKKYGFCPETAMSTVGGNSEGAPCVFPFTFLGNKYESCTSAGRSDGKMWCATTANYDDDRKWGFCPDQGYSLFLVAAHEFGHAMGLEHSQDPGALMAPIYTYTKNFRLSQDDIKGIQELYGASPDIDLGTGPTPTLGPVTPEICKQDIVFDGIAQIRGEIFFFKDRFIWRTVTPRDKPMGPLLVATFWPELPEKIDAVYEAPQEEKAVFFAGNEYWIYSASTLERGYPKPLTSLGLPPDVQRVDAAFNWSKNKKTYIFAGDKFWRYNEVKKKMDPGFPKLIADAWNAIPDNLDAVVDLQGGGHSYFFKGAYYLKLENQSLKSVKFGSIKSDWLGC

ACHN [11] = assay: Antiangiogenic activity in human ACHN cells assessed as reduction in branch length at 26.764 uM incubated for 72 hrs by microscopic analysis; format: functional, cell-based
ACHN [12] = assay: Antiproliferative activity against human ACHN cells incubated for 72 hrs by MTT assay
K562 [13] = assay: Induction of cell cycle arrest in human K562 cells assessed as cell population at G2/M phase at 4.919 uM incubated for 72 hrs by propidium iodide staining based flow cytometry analysis (reference value: 22.9 +/- 1.9%); format: functional
[14] = Downregulation of MMP-2 expression in human K562 cells at 4.919 uM incubated for 48 hrs by flow cytometry analysis; format: functional
K562 [15] = assay: Induction of cell cycle arrest in human K562 cells assessed as cell population at G1 phase at 4.919 uM incubated for 72 hrs by propidium iodide staining based flow cytometry analysis (reference value: 44.4 +/- 1.5%); format: functional
[16] = molecular target: Macrophage metalloelastase (Homo sapiens, UniProt P39900); assay: Inhibition of MMP-12 (unknown origin)
Macrophage metalloelastase, sequence (P39900 whole entry): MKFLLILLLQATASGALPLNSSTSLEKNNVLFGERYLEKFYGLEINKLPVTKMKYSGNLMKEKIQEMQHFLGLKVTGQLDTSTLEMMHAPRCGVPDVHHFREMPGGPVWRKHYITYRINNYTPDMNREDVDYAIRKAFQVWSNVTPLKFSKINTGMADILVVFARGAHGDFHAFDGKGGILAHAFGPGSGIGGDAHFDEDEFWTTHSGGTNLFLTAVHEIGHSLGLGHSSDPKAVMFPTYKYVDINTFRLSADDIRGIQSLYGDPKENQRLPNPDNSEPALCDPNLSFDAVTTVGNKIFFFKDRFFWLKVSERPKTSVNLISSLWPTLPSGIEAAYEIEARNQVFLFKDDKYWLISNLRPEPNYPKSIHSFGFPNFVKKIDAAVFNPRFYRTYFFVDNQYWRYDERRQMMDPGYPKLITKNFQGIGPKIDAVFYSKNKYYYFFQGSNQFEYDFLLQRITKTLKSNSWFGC

K562 [17] = assay: Induction of apoptosis in human K562 cells assessed as increase in late apoptotic cells at 1.992 uM after 48 hrs by AO/EB staining based fluorescence microscopic analysis; format: functional, cell-based
K562 [18] = assay: Induction of cell cycle arrest in human K562 cells assessed as cell population at sub-G1 phase at 1.992 uM incubated for 72 hrs by propidium iodide staining based flow cytometry analysis; format: functional
ACHN [19] = assay: Antiangiogenic activity in human ACHN cells assessed as reduction in mesh length at 17.157 uM incubated for 72 hrs by microscopic analysis; format: functional, cell-based
K562 [20] = assay: Induction of cell cycle arrest in human K562 cells assessed as cell population at G1 phase at 1.992 uM incubated for 72 hrs by propidium iodide staining based flow cytometry analysis (reference value: 44.4 +/- 1.5%); format: functional
K562 [21] = assay: Induction of apoptosis in human K562 cells assessed as appearance of apoptotic cells at 1.992 uM after 24 to 72 hrs by AO/EB staining based fluorescence microscopic analysis; format: functional, cell-based; settings: time 24-72 hrs
K562 [22] = assay: Induction of cell cycle arrest in human K562 cells assessed as cell population at S phase at 1.992 uM incubated for 72 hrs by propidium iodide staining based flow cytometry analysis (reference value: 32.7 +/- 3.1%); format: functional
K562 [23] = assay: Induction of apoptosis in human K562 cells assessed as increase in necrotic cells at 1.992 uM after 72 hrs by AO/EB staining based fluorescence microscopic analysis; format: functional, cell-based
K562 [24] = assay: Induction of apoptosis in human K562 cells assessed as morphological changes at 1.992 uM after 72 hrs by AO/EB staining based fluorescence microscopic analysis; format: functional, cell-based
ACHN [25] = assay: Antiangiogenic activity in human ACHN cells assessed as reduction in total tube length at 17.157 uM incubated for 72 hrs by microscopic analysis; format: functional, cell-based
K562 [26] = assay: Induction of apoptosis in human K562 cells assessed as increase in late apoptotic dead cells at 1.992 uM after 72 hrs by AO/EB staining based fluorescence microscopic analysis; format: functional, cell-based
K562 [27] = assay: Induction of apoptosis in human K562 cells at 1.992 uM by AO/EB staining based fluorescence microscopic analysis; format: functional, cell-based; settings: time 24-72 hrs, TDE = time-dependent effect
K562 [28] = assay: Induction of apoptosis in human K562 cells assessed as increase in early apoptotic cells at 1.992 uM after 24 hrs by AO/EB staining based fluorescence microscopic analysis; format: functional, cell-based
[29] = Downregulation of MMP-2 expression in human K562 cells at 1.992 uM incubated for 48 hrs by flow cytometry analysis; format: functional
ACHN [30] = assay: Antiangiogenic activity in human ACHN cells assessed as reduction in total segment length at 17.157 uM incubated for 72 hrs by microscopic analysis; format: functional, cell-based
ACHN [31] = assay: Antiangiogenic activity in human ACHN cells assessed as reduction in branch length at 17.157 uM incubated for 72 hrs by microscopic analysis; format: functional, cell-based
K562 [32] = assay: Induction of cell cycle arrest in human K562 cells assessed as cell population at G2/M phase at 1.992 uM incubated for 72 hrs by propidium iodide staining based flow cytometry analysis (reference value: 22.9 +/- 1.9%); format: functional
K562 [33] = assay: Induction of apoptosis in human K562 cells assessed as total apoptotic cells at 1.992 uM incubated for 72 hrs by Annexin-V/PI staining based flow cytometry analysis (reference value: 2.6 +/- 1.1%); format: functional
K562 [34] = assay: Induction of apoptosis in human K562 cells assessed as appearance of nucleus with fragmented DNA at 1.992 uM after 72 hrs by AO/EB staining based fluorescence microscopic analysis; format: functional, cell-based
K562 [35] = assay: Antiproliferative activity against human K562 cells; format: functional, cell-based

Structure (SMILES)	IC50 (K562 [1]) [µM]	IC50 (U-87 MG) [µM]	IC50 (A549) [µM]	IC50 (HT-1080) [µM]	IC50 (Neutrophil collagenase) [µM]	IC50 at 72 h [2] [µM]	other results
CC(C)CNC(=O)CC[C@@H](NS(=O)(=O)c1ccc([N+](=O)[O-])cc1)C(=O)O	8.06	38.5	10.8	16.2	–	217	–
CNC(=O)CC[C@@H](NS(=O)(=O)c1ccc([N+](=O)[O-])cc1)C(=O)O	5.69	20.5	20.8	24.4	–	417	–
CCCCCNC(=O)CC[C@@H](NS(=O)(=O)c1ccc(C)cc1)C(=O)O	8.37	33.1	14.4	27.6	–	408	–
Cc1ccc(S(=O)(=O)N[C@H](CCC(=O)NCC(C)C)C(=O)O)cc1	2.35	26.3	32.2	39.2	> 2	645	–

More lines, main results first:

IC50 (K562 [1]) [µM]	IC50 (U-87 MG) [µM]	IC50 (A549) [µM]	IC50 (HT-1080) [µM]	IC50 (Neutrophil collagenase) [µM]	Structure (SMILES)	IC50 at 72 h [2] [µM]	other results
7.76	16.2	12.2	32.9	–	CCNC(=O)CC[C@@H](NS(=O)(=O)c1ccc([N+](=O)[O-])cc1)C(=O)O	145	–
2.27	19.9	8.98	18.3	–	Cc1ccc(S(=O)(=O)N[C@H](CCC(N)=O)C(=O)O)cc1	279	–
4.91	17.9	5.68	57.5	> 2	O=C(CC[C@@H](NS(=O)(=O)c1ccc([N+](=O)[O-])cc1)C(=O)O)NCc1ccccc1	114	Activity (ACHN [3]): Active; Activity (K562 [4]): 26.7%; Activity (K562 [5]): 33.6%; IC50 [6]: 0.561 µM; Activity (K562 [7]): 4.6%; Activity (ACHN [8]): Active; Activity (ACHN [9]): Active; IC50 [10]: 0.273 µM; Activity (ACHN [11]): Active; IC50 (ACHN [12]): 26.8 µM; Activity (K562 [13]): 17.4%; Activity [14]: 19.6%; Activity (K562 [15]): 49%; IC50 [16]: 1.72 µM
1.99	17.5	3.57	19.7	> 2	Cc1ccc(S(=O)(=O)N[C@H](CCC(=O)NCc2ccccc2)C(=O)O)cc1	293	Activity (K562 [17]): Active; Activity (K562 [18]): 12%; Activity (ACHN [19]): Active; Activity (K562 [20]): 56.4%; Activity (K562 [21]): Active; Activity (K562 [22]): 29.1%; Activity (K562 [23]): Active; Activity (K562 [24]): inactive; Activity (ACHN [25]): Active; Activity (K562 [26]): Active; Activity (K562 [27]): Tde; Activity (K562 [28]): Active; Activity [29]: 20.1%; Activity (ACHN [30]): Active; IC50 (ACHN [12]): 17.2 µM; Activity (ACHN [31]): Active; Activity (K562 [32]): 14.7%; IC50 [16]: 1.24 µM; Activity (K562 [33]): 39.7%; Activity (K562 [34]): inactive
–	14.2	12.7	20.7	–	CCCCCNC(=O)CC[C@@H](NS(=O)(=O)c1ccc([N+](=O)[O-])cc1)C(=O)O	254	IC50 (K562 [35]): 6.79 µM
